Test system: HER2
Test: HER2 degradation assay with BT-474 cell line (Example 12, FACS)
Type: cell-based
Settings: Homo sapiens
From the text: HER2 Degradation Assay with BT-474 Cell Line
HER2 has emerged as a key target for anticancer drugs due to its intrinsic involvement in the phosphatidylinositol-3-kinase-Akt/protein kinase B (PI3K-Akt) and the mitogen-activated protein kinase (MAPK) pathways, both of which suppress apoptosis and promote tumor cell survival, gene transcription, angiogenesis, cellular proliferation, migration, mitosis, and differentiation. The degradation of HER2 is a measure of efficacy of anticancer therapeutics that target Hsp90. Accordingly, the SDC-TRAP molecules of the invention that comprise a binding moiety that binds Hsp90 were tested in the following HER2 degradation assay.
BT-474 cells (human breast cancer cell line ATCC HTB-20) were obtained from ATCC and seeded into 12-well tissue culture plates at 0.2×10^6/1.8 mL/well. […] Each test compound was titrated in 4-fold dilutions from 5 μM to 78 nM with DMSO and 200 μL of the titration was added to each well of the cell plate. The DMSO final concentration was 0.2%. Cells were incubated overnight at 37° C. in 5% CO2.
Media was decanted from the plate, cells were washed 1× in PBS. 400 μL trypsin (EDTA) per well was added, and the cells were incubated for 2 to 3 minutes. Cells were collected into FACS tubes containing 1 ml culture medium to neutralize the trypsin and were centrifuged for 5 minutes at 1200 rpm. Supernatant was decanted and the cells were resuspended in 5 μL FITC (anti HER2/nu)/200 μL staining buffer (1×PBS+1% FBS+0.05% Sodium Azide)/tube. Controls were […] IgG isotype control and staining buffer only. Tubes were incubated for 30 minutes in the dark at room temperature. 1 mL staining buffer was added to each tube and the tubes were centrifuged for 6 minutes at 1200 rpm. The supernatant was decanted and 300 μL staining buffer was added to each tube, which was store at 4° C. for FACS (cytometer) analysis. The cytometer readout was normalized and the potency of each compound is evaluated with IC50 calculated with XLfit™ software.

[1] = BT-474, SDC-TRAPs of the 41st table

Row | Structure (SMILES) | IC50 (BT-474 cells) | also measured
1 | CCNC(=O)c1nnc(-c2cc(C(C)C)c(O)cc2O)n1-c1ccc(Oc2ccc(C(=O)NC(Cc3ccccc3)C(=O)Nc3cc(-c4cnoc4-c4cc(OC)c(OC)c(OC)c4)ccc3OC)cc2)cc1 (stereo not drawn) [SDC-TRAP-0158, 5-(2,4-dihydroxy-5-isopropylphenyl)-N-ethyl-4-(4-(4-((1-((2-methoxy-5-(5-(3,4,5-trimethoxyphenyl)isoxazol-4-yl)phenyl)amino)-1-oxo-3-phenylpropan-2-yl)carbamoyl)phenoxy)phenyl)-4H-1,2,4-triazole-3-carboxamide] |  | IC50 (BT-474, SDC-TRAPs of the 52nd table): > 5 µM
2 | CCNC(=O)c1nnc(-c2cc(C(C)C)c(O)cc2O)n1-c1ccc(Oc2ccc(C(=O)N3CCC(COC(=O)Nc4cccc5c4CN(C4CCC(=O)NC4=O)C5=O)CC3)cc2)cc1 (stereo not drawn) [SDC-TRAP-0125, (1-(4-(4-(3-(2,4-Dihydroxy-5-isopropylphenyl)-5-(ethylcarbamoyl)-4H-1,2,4-triazol-4-yl)phenoxy)benzoyl)piperidin-4-yl)methyl (2-(2,6-dioxopiperidin-3-yl)-1-oxoisoindolin-4-yl)carbamate] | 0.312 µM | 
3 | CCNC(=O)c1nnc(-c2cc(C(C)C)c(O)cc2O)n1-c1ccc(CN2CCC(C(=O)N[C@H](C(=O)Nc3cccc4c3CN(C3CCC(=O)NC3=O)C4=O)C(C)C)CC2)cc1 (stereo partly drawn) [SDC-TRAP-0163, 1-(4-(3-(2,4-dihydroxy-5-isopropylphenyl)-5-(ethylcarbamoyl)-4H-1,2,4-triazol-4-yl)benzyl)-N-((2S)-1-((2-(2,6-dioxopiperidin-3-yl)-1-oxoisoindolin-4-yl)amino)-3-methyl-1-oxobutan-2-yl)piperidine-4-carboxamide] | 0.885 µM | 
4 | CCNC(=O)c1nnc(-c2cc(C(C)C)c(O)cc2O)n1-c1ccc(Oc2ccc(C(=O)N3CCC[C@H]3C(=O)Nc3cccc4c3CN(C3CCC(=O)NC3=O)C4=O)cc2)cc1 (stereo partly drawn) [SDC-TRAP-0192, 5-(2,4-dihydroxy-5-isopropylphenyl)-4-(4-(4-((2S)-2-((2-(2,6-dioxopiperidin-3-yl)-1-oxoisoindolin-4-yl)carbamoyl)pyrrolidine-1-carbonyl)phenoxy)phenyl)-N-ethyl-4H-1,2,4-triazole-3-carboxamide] | > 5 µM | 
5 | CCNC(=O)c1nnc(-c2cc(C(C)C)c(O)cc2O)n1-c1ccc(C(=O)N2CCC(COC(=O)Nc3cccc4c3CN(C3CCC(=O)NC3=O)C4=O)CC2)cc1 (stereo not drawn) [SDC-TRAP-0136, (1-(4-(3-(2,4-dihydroxy-5-isopropylphenyl)-5-(ethylcarbamoyl)-4H-1,2,4-triazol-4-yl)benzoyl)piperidin-4-yl)methyl (2-(2,6-dioxopiperidin-3-yl)-1-oxoisoindolin-4-yl)carbamate] | > 5 µM | 
6 | CCc1c2c(nc3ccc(OCCN4CCN(c5ccc(-n6c(O)nnc6-c6cc(C(C)C)c(O)cc6O)cc5)CC4)cc13)-c1cc3c(c(=O)n1C2)COC(=O)C3(O)CC (stereo not drawn) [SDC-TRAP-0057, 9-(2-(4-(4-(3-(2,4-dihydroxy-5-isopropylphenyl)-5-hydroxy-4H-1,2,4-triazol-4-yl)phenyl)piperazin-1-yl)ethoxy)-4,11-diethyl-4-hydroxy-1H-pyrano[3′,4′:6,7]indolizino[1,2-b]quinoline-3,14(4H,12H)-dione] |  | IC50 (BT-474, SDC-TRAPs of the 43rd table): 0.449 µM
7 | CC(C)c1cc(-c2nnc(O)n2-c2ccc3c(c2)nc(C2CCN(C(=O)c4ccc(CCc5c[nH]c6nc(N)[nH]c(=O)c56)cc4)CC2)n3C)c(O)cc1O [SDC-TRAP-0102, 2-amino-5-(4-(4-(5-(3-(2,4-dihydroxy-5-isopropylphenyl)-5-hydroxy-4H-1,2,4-triazol-4-yl)-1-methyl-1H-benzo[d]imidazol-2-yl)piperidine-1-carbonyl)phenethyl)-3H-pyrrolo[2,3-d]pyrimidin-4(7H)-one] |  | IC50 [1]: > 5 µM
8 | CCNC(=O)c1nnc(-c2cc(C(C)C)c(O)cc2O)n1-c1ccc(C(=O)N[C@H](C(=O)Nc2cccc3c2CN(C2CCC(=O)NC2=O)C3=O)C(C)C)cc1 (stereo partly drawn) [SDC-TRAP-0188, 5-(2,4-dihydroxy-5-isopropylphenyl)-4-(4-(((2S)-1-((2-(2,6-dioxopiperidin-3-yl)-1-oxoisoindolin-4-yl)amino)-3-methyl-1-oxobutan-2-yl)carbamoyl)phenyl)-N-ethyl-4H-1,2,4-triazole-3-carboxamide] | 3.95 µM | 
9 | CC(C)c1cc(-c2nnc(O)n2-c2ccc(N3CCN(C(=O)N4CCC(n5cc(-c6cnc(N)c(O[C@H](C)c7c(Cl)ccc(F)c7Cl)c6)cn5)CC4)CC3)cc2)c(O)cc1O [SDC-TRAP-0138, (R)-(4-(4-(6-amino-5-(1-(2,6-dichloro-3-fluorophenyl)ethoxy)pyridin-3-yl)-1H-pyrazol-1-yl)piperidin-1-yl)(4-(4-(3-(2,4-dihydroxy-5-isopropylphenyl)-5-hydroxy-4H-1,2,4-triazol-4-yl)phenyl)piperazin-1-yl)methanone] | 0.707 µM | 
10 | CC(C)c1cc(-c2nnc(O)n2-c2ccc(CC3CCN(CC4CCN(C(=O)c5ccc(CCc6c[nH]c7nc(N)[nH]c(=O)c67)cc5)CC4)CC3)cc2)c(O)cc1O [SDC-TRAP-0103, 2-amino-5-(4-(4-((4-(4-(3-(2,4-dihydroxy-5-isopropylphenyl)-5-hydroxy-4H-1,2,4-triazol-4-yl)benzyl)piperidin-1-yl)methyl)piperidine-1-carbonyl)phenethyl)-3H-pyrrolo[2,3-d]pyrimidin-4(7H)-one] |  | IC50 [1]: 0.245 µM
11 | CC(C)c1cc(-c2nnc(O)n2-c2ccc(CC3CCN(C(=O)O[C@H]4CC[C@@]5(C)C(=CC[C@@H]6[C@@H]5CC[C@]5(C)C(c7cccnc7)=CC[C@@H]65)C4)CC3)cc2)c(O)cc1O [SDC-TRAP-0153, (3S,8R,9S,10R,13S,14S)-10,13-dimethyl-17-(pyridin-3-yl)-2,3,4,7,8,9,10,11,12,13,14,15-dodecahydro-1H-cyclopenta[a]phenanthren-3-yl 4-(4-(3-(2,4-dihydroxy-5-isopropylphenyl)-5-hydroxy-4H-1,2,4-triazol-4-yl)benzyl) piperidine-1-carboxylate] | 6.34 µM | 

More lines, main results first:

Row | IC50 (BT-474 cells) | Structure (SMILES) | also measured
12 | > 5 µM | CC(C)c1cc(-c2nnc(O)n2-c2ccc3c(ccn3CCN(C)C(=O)CCn3cc(F)c(=O)[nH]c3=O)c2)c(O)cc1O [SDC-TRAP-0051, N-(2-(5-(3-(2,4-dihydroxy-5-isopropylphenyl)-5-hydroxy-4H-1,2,4-triazol-4-yl)-1H-indol-1-yl)ethyl)-3-(5-fluoro-2,4-dioxo-3,4-dihydropyrimidin-1(2H)-yl)-N-methylpropanamide] | 
13 | > 5 µM | CC(C)c1cc(-c2nnc(O)n2-c2ccc(CN3CCN(C(=O)CCn4cc(F)c(=O)[nH]c4=O)CC3)cc2)c(O)cc1O [SDC-TRAP-0049, 1-(3-(4-(4-(3-(2,4-dihydroxy-5-isopropylphenyl)-5-hydroxy-4H-1,2,4-triazol-4-yl)benzyl)piperazin-1-yl)-3-oxopropyl)-5-fluoropyrimidine-2,4(1H,3H)-dione] | 
14 | 2.63 µM | CC(C)c1cc(-c2nnc(O)n2-c2ccc(N3CCN(C(=O)c4ccc(COC(=O)Nc5cccc6c5CN(C5CCC(=O)NC5=O)C6=O)cc4)CC3)nc2)c(O)cc1O (stereo not drawn) [SDC-TRAP-0175, 4-(4-(5-(3-(2,4-dihydroxy-5-isopropylphenyl)-5-hydroxy-4H-1,2,4-triazol-4-yl)pyridin-2-yl)piperazine-1-carbonyl)benzyl (2-(2,6-dioxopiperidin-3-yl)-1-oxoisoindolin-4-yl)carbamate] | 
15 | > 10 µM | CC(C)c1cc(-c2nnc(O)n2-c2ccc3c(ccn3CCOC(=O)Nc3cccc4c3CN(C3CCC(=O)NC3=O)C4=O)c2)c(O)cc1O (stereo not drawn) [SDC-TRAP-0122, 2-(5-(3-(2,4-dihydroxy-5-isopropylphenyl)-5-hydroxy-4H-1,2,4-triazol-4-yl)-1H-indol-1-yl)ethyl (2-(2,6-dioxopiperidin-3-yl)-1-oxoisoindolin-4-yl)carbamate] | 
16 | > 5 µM | CC(C)c1cc(-c2nnc(O)n2-c2ccc(CC3CCN(C(=O)COC(=O)Nc4cccc5c4CN(C4CCC(=O)NC4=O)C5=O)CC3)cc2)c(O)cc1O (stereo not drawn) [SDC-TRAP-0131, 2-(4-(4-(3-(2,4-dihydroxy-5-isopropylphenyl)-5-hydroxy-4H-1,2,4-triazol-4-yl)benzyl)piperidin-1-yl)-2-oxoethyl(2-(2,6-dioxopiperidin-3-yl)-1-oxoisoindolin-4-yl)carbamate] | 
17 | 0.358 µM | CCNC(=O)c1nnc(-c2cc(C(C)C)c(O)cc2O)n1-c1ccc(CN2CCC(C(=O)N3CCC(COC(=O)Nc4cccc5c4CN(C4CCC(=O)NC4=O)C5=O)CC3)CC2)cc1 (stereo not drawn) [SDC-TRAP-0124, (1-(1-(4-(3-(2,4-Dihydroxy-5-isopropylphenyl)-5-(ethylcarbamoyl)-4H-1,2,4-triazol-4-yl)benzyl)piperidine-4-carbonyl)piperidin-4-yl)methyl (2-(2,6-dioxopiperidin-3-yl)-1-oxoisoindolin-4-yl)carbamate] | 
18 | 4.31 µM | CC(C)c1cc(-c2nnc(O)n2-c2ccc(CC3CCN(C(=O)Nc4cccc5c4CN(C4CCC(=O)NC4=O)C5=O)CC3)cc2)c(O)cc1O (stereo not drawn) [SDC-TRAP-0114, 4-(4-(3-(2,4-dihydroxy-5-isopropylphenyl)-5-hydroxy-4H-1,2,4-triazol-4-yl)benzyl)-N-(2-(2,6-dioxopiperidin-3-yl)-1-oxoisoindolin-4-yl)piperidine-1-carboxamide] | 

From patent US9956293B2, “Targeted therapeutics” (Madrigal Pharmaceuticals, Inc., priority 2014, dated 2018)
